Data reported in PMC8253220, “Molecular design, synthesis and in vitro biological evaluation of thienopyrimidine–hydroxamic acids as chimeric kinase HDAC inhibitors: a challenging approach to combat cancer” (Journal of Enzyme Inhibition and Medicinal Chemistry, 2021).
Where “and” joins values, the source holds several entries; their conditions need not be identical. Identical values can stand only once.

Legend:
Test in all cases: NCI one-dose screen
Assay type in all cases: cell-based, human
BT-549 = settings: Breast BT-549, 10 µM single dose
Outline: (§1)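 At 10 μM, a single concentration, compounds were evaluated for antiproliferative effect in the NCI 60-line screen, with growth expressed relative to untreated control cells.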

CAKI-1 = settings: Renal CAKI-1, 10 µM single dose
Outline: as §1

COLO 205 = settings: Colon COLO 205, 10 µM single dose
Outline: as §1

DU-145 = settings: Prostate DU-145, 10 µM single dose
Outline: as §1

HCC-2998 = settings: Colon HCC-2998, 10 µM single dose
Outline: as §1

HL-60(TB) = settings: Leukemia HL-60(TB), 10 µM single dose
Outline: as §1

HOP-62 = settings: NSCLC HOP-62, 10 µM single dose
Outline: (§2)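 Compounds were tested at a single dose of 10 μM across the full NCI-60 cell line panel. Growth was expressed as percent growth relative to untreated control cells, reported as percent inhibition.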

HOP-92 = settings: NSCLC HOP-92, 10 µM single dose
Outline: as §1

HS 578T = settings: Breast HS 578T, 10 µM single dose
Outline: as §1

IGROV1 = settings: Ovarian IGROV1, 10 µM single dose
Outline: as §1

K-562 = settings: Leukemia K-562, 10 µM single dose
Outline: as §1

KM12 = settings: for Growth Percent: Colon KM12, 10 µM single dose
Outline: (§3)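 In vitro antiproliferative testing: NCI-60 panel, initial single dose 10 μM, inhibition % derived from percent growth of treated versus untreated control cells.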

LOX IMVI = settings: Melanoma LOX IMVI, 10 µM single dose
Outline: as §1

MCF7 = settings: for Growth Percent: Breast MCF7, 10 µM single dose
Outline: as §3

MDA-MB-435 = settings: Melanoma MDA-MB-435, 10 µM single dose
Outline: as §1

MDA-MB-468 = settings: Breast MDA-MB-468, 10 µM single dose
Outline: as §3

MOLT-4 = settings: for Growth Percent: Leukemia MOLT-4, 10 µM single dose
Outline: as §3

NCI-H226 = settings: NSCLC NCI-H226, 10 µM single dose
Outline: as §3

NCI-H23 = settings: for Growth Percent: NSCLC NCI-H23, 10 µM single dose
Outline: as §3

NCI-H322M = settings: NSCLC NCI-H322M, 10 µM single dose
Outline: as §1

NCI-H460 = settings: NSCLC NCI-H460, 10 µM single dose
Outline: as §1

OVCAR-5 = settings: Ovarian OVCAR-5, 10 µM single dose
Outline: as §1

OVCAR-8 = settings: Ovarian OVCAR-8, 10 µM single dose
Outline: as §1

PC-3 = settings: Prostate PC-3, 10 µM single dose
Outline: (§4)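 Single 10 μM dose, NCI-60 panel; read-out = % growth vs untreated controls → % inhibition.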

RPMI-8226 = settings: Leukemia RPMI-8226, 10 µM single dose
Outline: as §1

SF-268 = settings: for Growth Percent: CNS SF-268, 10 µM single dose
Outline: as §3

SF-295 = settings: CNS SF-295, 10 µM single dose
Outline: as §1

SK-MEL-28 = settings: Melanoma SK-MEL-28, 10 µM single dose
Outline: as §4

SK-MEL-2 = settings: Melanoma SK-MEL-2, 10 µM single dose
Outline: as §2

SN12C = settings: Renal SN12C, 10 µM single dose
Outline: as §1

SNB-19 = settings: CNS SNB-19, 10 µM single dose
Outline: as §2

SR = settings: Leukemia SR, 10 µM single dose
Outline: as §1

SW-620 = settings: Colon SW-620, 10 µM single dose
Outline: as §4

T-47D = settings: Breast T-47D, 10 µM single dose
Outline: as §1

U251 = settings: for Growth Percent: CNS U251, 10 µM single dose
Outline: as §3

UACC-257 = settings: Melanoma UACC-257, 10 µM single dose
Outline: as §4

UO-31 = settings: for Growth Percent: Renal UO-31, 10 µM single dose
Outline: as §3

With COc1cccc(NC(=O)Nc2ccc(Nc3ncnc4sc(C(=O)NO)c(C)c34)cc2)c1 [Compound 7b, 1–(4-(6-(hydroxycarbamoyl)-5-methylthieno[2,3-d]pyrimidin-4-ylamino)phenyl)-3–(3-methoxyphenyl)urea] the “Growth Percent” value (BT-549) was 99.5% and 99.56%, the “Growth Percent” value (CAKI-1) was 99.4% and 99.45% and the “Growth Percent” value (COLO 205) was 114.4% and 114.44%. The “Growth Percent” value (DU-145) was 103.1% and 103.17%, the “Growth Percent” value (HCC-2998) was 103.6% and 103.61% and the “Growth Percent” value (HL-60(TB)) was 103.1% and 103.15%. For the same compound, the “Growth Percent” value (HOP-62) was 101.6% and 101.62%, the “Growth Percent” value (HOP-92) was 108.4% and 108.42% and the “Growth Percent” value (HS 578T) was 102.4% and 102.45%. The “Growth Percent” value (IGROV1) was 106.5% and 106.51%, the “Growth Percent” value (K-562) was 108.5% and 108.57% and the “Growth Percent” value (KM12) was 102.7% and 102.79%. For the same compound, the “Growth Percent” value (LOX IMVI) was 94.1% and 94.14%, the “Growth Percent” value (MCF7) was 95.2% and 95.27% and the “Growth Percent” value (MDA-MB-435) was 101.5% and 101.59%. For the same compound, the “Growth Percent” value (MDA-MB-468) was 98.8% and 98.87%, the “Growth Percent” value (MOLT-4) was 112.4% and 112.45% and the “Growth Percent” value (NCI-H226) was 94.5% and 94.51%. The “Growth Percent” value (NCI-H23) was 98.8% and 98.89%, the “Growth Percent” value (NCI-H322M) was 103.7% and the “Growth Percent” value (NCI-H460) was 100.7% and 100.73%. For the same compound, the “Growth Percent” value (OVCAR-5) was 102.8% and 102.86%, the “Growth Percent” value (OVCAR-8) was 96.6% and 96.69% and the “Growth Percent” value (PC-3) was 101.6% and 101.65%. The “Growth Percent” value (RPMI-8226) was 110.6% and 110.62%, the “Growth Percent” value (SF-268) was 93.3% and 93.33% and the “Growth Percent” value (SF-295) was 94.5% and 94.51%. For the same compound, the “Growth Percent” value (SK-MEL-28) was 111.1% and 111.16%, the “Growth Percent” value (SK-MEL-2) was 100.6% and 100.68% and the “Growth Percent” value (SN12C) was 99.1% and 99.12%. The “Growth Percent” value (SNB-19) was 100.1% and 100.14%, the “Growth Percent” value (SR) was 115.8% and 115.82% and the “Growth Percent” value (SW-620) was 101.2% and 101.24%. For the same compound, the “Growth Percent” value (T-47D) was 99.6% and 99.67%, the “Growth Percent” value (U251) was 101.4% and 101.41% and the “Growth Percent” value (UACC-257) was 100.8% and 100.87%. For the same compound, the “Growth Percent” value (UO-31) was 83.4% and 83.47%.
For Cc1c(C(=O)NO)sc2ncnc(Nc3ccc(NC(=O)Nc4cccc(C(F)(F)F)c4)cc3)c12 [Compound 7c, 1–(4-(6-(hydroxycarbamoyl)-5-methylthieno[2,3-d]pyrimidin-4-ylamino)phenyl)-3–(3-(trifluoromethyl)phenyl)urea], the “Growth Percent” value (BT-549) was 115.1% and 115.17%, the “Growth Percent” value (CAKI-1) was 90.57% and the “Growth Percent” value (COLO 205) was 103.3% and 103.35%. For the same compound, the “Growth Percent” value (DU-145) was 104.5% and 104.51%, the “Growth Percent” value (HCC-2998) was 112.6% and 112.66% and the “Growth Percent” value (HL-60(TB)) was 102.0% and 102.08%. The “Growth Percent” value (HOP-62) was 93.7% and 93.71%, the “Growth Percent” value (HOP-92) was 119.3% and 119.39% and the “Growth Percent” value (HS 578T) was 90.3% and 90.32%. For the same compound, the “Growth Percent” value (IGROV1) was 97.6% and 97.68%, the “Growth Percent” value (K-562) was 91.7% and 91.72% and the “Growth Percent” value (KM12) was 66.3% and 66.34%. For the same compound, the inhibition at 10 µM (KM12; Homo sapiens, colon KM12, 10 μM) was 33.7%, the “Growth Percent” value (LOX IMVI) was 90.9% and 90.99% and the “Growth Percent” value (MCF7) was 88.4% and 88.42%. The inhibition at 10 µM (MCF7; Homo sapiens, breast MCF7, 10 μM) was 11.6%, the “Growth Percent” value (MDA-MB-435) was 100.6% and 100.67% and the “Growth Percent” value (MDA-MB-468) was 109.16%. For the same compound, the inhibition at 10 µM (MOLT-4; Homo sapiens, leukaemia MOLT-4, 10 μM) was 11.8%, the “Growth Percent” value (MOLT-4) was 88.2% and 88.24% and the “Growth Percent” value (NCI-H226) was 99.2% and 99.29%. For the same compound, the inhibition at 10 µM (NCI-H23; Homo sapiens, NSCLC NCI-H23, 10 μM) was 11.1%, the “Growth Percent” value (NCI-H23) was 88.9% and 88.92% and the “Growth Percent” value (NCI-H322M) was 99.6% and 99.69%. For the same compound, the “Growth Percent” value (NCI-H460) was 101.7% and 101.73%, the “Growth Percent” value (OVCAR-5) was 114.3% and 114.33% and the “Growth Percent” value (OVCAR-8) was 100.4% and 100.41%. The “Growth Percent” value (PC-3) was 91.1% and 91.19%, the “Growth Percent” value (RPMI-8226) was 93.27% and the “Growth Percent” value (SF-268) was 89.2%. The inhibition at 10 µM (SF-268; Homo sapiens, CNS SF-268, 10 μM) was 10.8%, the “Growth Percent” value (SF-295) was 95.1% and 95.16% and the “Growth Percent” value (SK-MEL-28) was 108.2% and 108.23%. The “Growth Percent” value (SK-MEL-2) was 108.5% and 108.54%, the “Growth Percent” value (SN12C) was 97.89% and the “Growth Percent” value (SNB-19) was 90.8% and 90.81%. The “Growth Percent” value (SR) was 94.0% and 94.07%, the “Growth Percent” value (SW-620) was 108.7% and 108.79% and the “Growth Percent” value (T-47D) was 96.3% and 96.39%. The “Growth Percent” value (U251) was 73.1% and 73.13%, the inhibition at 10 µM (U251; Homo sapiens, U-251, CNS U251, 10 μM) was 26.9% and the “Growth Percent” value (UACC-257) was 106.3% and 106.33%. The inhibition at 10 µM (UO-31; Homo sapiens, renal UO-31, 10 μM) was 24.7% and the “Growth Percent” value (UO-31) was 75.7% and 75.79%.
With Cc1c(C(=O)NCCC(=O)NO)sc2ncnc(Nc3ccc(NC(=O)Nc4ccccc4)cc3)c12 [Compound 11a, 1–(4-(6-((3-(hydroxyamino)-3-oxopropyl)carbamoyl)-5-methylthieno[2,3-d]pyrimidin-4-ylamino)phenyl)-3-phenylurea] the “Growth Percent” value (BT-549) was 104.9%, the “Growth Percent” value (CAKI-1) was 94.5% and 94.51% and the “Growth Percent” value (COLO 205) was 113.5% and 113.57%. For the same compound, the “Growth Percent” value (DU-145) was 110.81%, the “Growth Percent” value (HCC-2998) was 98.0% and 98.02% and the “Growth Percent” value (HL-60(TB)) was 103.5% and 103.58%. For the same compound, the “Growth Percent” value (HOP-62) was 102.3% and 102.39%, the “Growth Percent” value (HOP-92) was 106.7% and 106.72% and the “Growth Percent” value (HS 578T) was 99.6% and 99.62%. The “Growth Percent” value (IGROV1) was 103.0% and 103.03%, the “Growth Percent” value (K-562) was 108.3% and 108.34% and the “Growth Percent” value (KM12) was 103.2% and 103.23%. For the same compound, the “Growth Percent” value (LOX IMVI) was 95.3% and 95.38%, the “Growth Percent” value (MCF7) was 92.3% and the “Growth Percent” value (MDA-MB-435) was 102.2% and 102.21%. The “Growth Percent” value (MDA-MB-468) was 101.3% and 101.31%, the “Growth Percent” value (MOLT-4) was 110.5% and 110.52% and the “Growth Percent” value (NCI-H226) was 90.4% and 90.42%. The “Growth Percent” value (NCI-H23) was 96.1% and 96.12%, the “Growth Percent” value (NCI-H322M) was 101.2% and 101.26% and the “Growth Percent” value (NCI-H460) was 101.8% and 101.81%. The “Growth Percent” value (OVCAR-5) was 106.2% and 106.26%, the “Growth Percent” value (OVCAR-8) was 101.0% and 101.03% and the “Growth Percent” value (PC-3) was 101.7% and 101.73%. The “Growth Percent” value (RPMI-8226) was 109.4%, the “Growth Percent” value (SF-268) was 96.8% and 96.85% and the “Growth Percent” value (SF-295) was 95.2% and 95.29%. For the same compound, the “Growth Percent” value (SK-MEL-28) was 105.1% and 105.11%, the “Growth Percent” value (SK-MEL-2) was 107.0% and 107.07% and the “Growth Percent” value (SN12C) was 101.4% and 101.42%. For the same compound, the “Growth Percent” value (SNB-19) was 97.5% and 97.59%, the “Growth Percent” value (SR) was 108.7% and 108.77% and the “Growth Percent” value (SW-620) was 103.0% and 103.02%. For the same compound, the “Growth Percent” value (T-47D) was 107.7% and 107.73%, the “Growth Percent” value (U251) was 96.9% and 96.93% and the “Growth Percent” value (UACC-257) was 101.0% and 101.08%. The “Growth Percent” value (UO-31) was 83.7% and 83.77%.
